From US10253002B2, “Compounds and methods of treating infections” (Neoculi Pty Ltd., priority 2013, dated 2019)
≈ marks a conversion by molar mass, not a printed value. Where “and” joins values, the source holds several entries; their conditions need not be identical. Equal values may be shown once.

Assays:
[1] = system: S. aureus ATCC29213; assay: Broth microdilution MIC, Example 7 (NCL analogues), Table 42; type: cell-based, Staphylococcus aureus; settings: S. aureus ATCC29213, 24 hours
[2] = system: Escherichia coli; assay: Broth microdilution MIC, Example 7 (NCL812 and analogues); type: cell-based; settings: E. coli ATCC25922, 24 hours
[3] = system: Pseudomonas aeruginosa; assay: as above; type: cell-based; settings: Pseudomonas #008, 24 hours
[4] = system: E. faecalis #32; assay: Broth microdilution MIC, Example 7 (NCL analogues), Table 42; type: cell-based, Enterococcus faecalis; settings: E. faecalis #32, 24 hours

Row | MIC (μg/ml) at 24 hours S. aureus ATCC29213 [1] | MIC (μg/ml) at 24 hours E. coli ATCC25922 [2] [µg/mL] | MIC (μg/ml) at 24 hours Pseudomonas #008 [3] [µg/mL] | MIC (μg/ml) at 24 hours E. faecalis #32 [4] [µg/mL] | SMILES
1 | 32 µg/mL and 64 µg/mL | >64 | >64 | 64 | Cl.[H]/N=C(/N)NN=C(CNN)c1ccc(Cl)cc1 [NCL 190]
2 | >64 µg/mL | >64 | >64 | >64 | C/C(=N\NC(=N)N)c1ccc(Cl)cc1.Cl [NCL 191]
3 | >64 µg/mL | >64 | >64 | >64 | Cl.N=C(N)NN=C(C(=O)O)c1ccccc1 [NCL 192]

Second part, the molecule before the results:

Row | SMILES | MIC (μg/ml) at 24 hours S. aureus ATCC29213 [1] | MIC (μg/ml) at 24 hours E. coli ATCC25922 [2] [µg/mL] | MIC (μg/ml) at 24 hours Pseudomonas #008 [3] [µg/mL] | MIC (μg/ml) at 24 hours E. faecalis #32 [4] [µg/mL]
4 | Cl.[H]/N=C(\N)NN=C(CCCC)c1ccc(Cl)cc1 [NCL 188] | 32 µg/mL | 64 | >64 | 32
5 | CC(Nc1cc(Cl)nc(N)n1)c1ccccc1 (stereo not drawn) [NCL 182] | >64 µg/mL | >64 | >64 | >64
6 | CC(Nc1cc(NC(C)c2ccccc2)nc(N)n1)c1ccccc1 (stereo not drawn) [NCL 184] | >64 µg/mL | >64 | >64 | 64 (≈ 192 µM)
7 | Nc1nc(N/N=C/c2ccc(Cl)cc2)cc(N/N=C/c2ccc(Cl)cc2)n1 [NCL 179] | 4 µg/mL (≈ 9.99 µM) | >64 | >64 | 8 (≈ 20 µM)
8 | Cl.OC/C(=N\Nc1cc(N/N=C(\CO)c2ccc(Cl)cc2)ncn1)c1ccc(Cl)cc1 [NCL 189] | >64 µg/mL | >64 | >64 | >64
9 | CC(Nc1cc(NC(C)c2ccccc2)ncn1)c1ccccc1 (stereo not drawn) [NCL 183] | >64 µg/mL | >64 | >64 | >64
